Data published in patent publication US12410220B2, “Modulation of mammalian cell lineage by synthetic immodulins” (priority 2021, dated 2025).
Marks after values point to notes of the source that are not given here. Square brackets hold non-standard residues; d marks the D form. Ends that are not written are not given here. Peptide text beside a SMILES is read from it. * marks the point of attachment. Pentanoyl(2-Pr) = CCCC(CCC)C(=O)*; Decanoyl = CCCCCCCCCC(=O)*

Columns and labels:
[1] = system: rat scald-endotoxemia model; test: Experiment 5B rat scald-endotoxemia model; type: in vivo, Sprague Dawley rats
Protocol: Experiment 5B. This study explores the effect of immX extensions on sV-nephrilin (SEQ ID NO:31) vs V-nephrilin, as well as in a longer peptide also containing the immX extension (Traumatin-3N1A: SEQ ID NO:35) on in vivo efficacy in a rat scald-endotoxemia model. Animals were treated with peptides using a widely used protocol previously described (see, for example, U.S. Pat. No. 10,369,191). Adult Sprague Dawley rats of both sexes (250-300 gm, Charles River Laboratories, Wilmington, MA, USA) were injected with peptide plus equimolar ferric iron once daily by subcutaneous bolus injection, days 1-7; Treatment group sizes were (n=6): group S=sham-treated; group B=burn+vehicle; group V=burn+1 mg/kg V-nephrilin (V); group sV=burn+1 mg/kg sV-nephrilin (immX3N1sV); group T=burn+1 mg/kg Traumatin-3N1A. The first dose was administered after completion of the scald procedure. Injection volume was 400 uL. Control animals received the same volume of vehicle. On Day 8, animals received a single intraperitoneal injection of 2.5 mg/kg lipopolysaccharide (LPS; Sigma Cat #L-2880) and animals were then monitored by oximeter (MouseOx, Starr Life Sciences) for 4 hours, when respiratory distress (breath distension*breaths/min) was assessed relative to baseline. This was followed by sacrifice and tissue collection as in the published protocol, except that bronchoalveolar lavage (BAL) was collected and cells were recovered from BAL by centrifugation. These cells were stained with fluorescently-labeled antibodies for flow cytometry in order to ascertain granulocyte counts, as shown below. Results of the peptide comparison are presented in the table below. *p<0.05 vs “B” control. #p<0.05 vs “V” group.

[2] = system: HFF-1 human fibroblast cell line; test: Collagen-1 ELISA in HFF-1 dermal fibroblasts; type: cell-based; conditions: peptide 2 uM, 72 hour incubation
Protocol: Immodulin peptides have potential untility in the field of cosmetics. HFF-1 human fibroblast cell line was obtained from the American Type Culture Collection (ATCC). Cells were grown in a T-75 flask in DMEM Medium containing 10% fetal bovine serum and penicillin-streptomycin at 37° C. in a humidified, 5% CO2 incubator. Cells (100 µl, 2,000 cells/well) were plated in a 96-well plate and incubated overnight at 37° C. in a humidified, 5% CO2 incubator. Next day, 10 µl/well of compounds were added (quadruplicate wells). After 72 hour incubation with the compound, supernatants were collected for Collagen-1 ELISA assay and cell viability was measured in a luminometer after the addition of 100 IL/well CellTiterGlo reagent (Promega Inc, Madison, WI) as recommended by the manufacturer. Collagen stimulating activity of immodulin peptides in HFF-1 dermal fibroblasts: Peptides were added to cells at 2 uM. COL1 immunoreactivity was measured in the supernatants of cultured cells by ELISA using a rabbit monoclonal anti-COL1 primary antibody (Abcam, Cambridge, MA). Control (buffer) value of immunoreactivity was set to 100.

[3] = Ferric iron-binding assay of biotinylated immodulin peptides; conditions: N-terminally biotinylated peptide, 400 ng per well, 60 min room temperature; immX3AVD = 100
Source text: N-terminally biotinylated versions of the peptides listed below were used in ferric iron-binding assays involving either an Alexa488-labeled streptavidin protocol (Binding Assay 1) or FITC-NTA assay (Binding Assay 2). Fluorescence was standardized to binding with immX3AVD control peptide (100) and the average of multiple experiments using both protocols is shown. P values are shown relative to the control immX3AVD peptide (**<0.05). D-amino acid residues are underlined in the sequences and the extension tripeptide of immX peptides is shown in bold font. Binding Assay 1 was done as follows: NTA coated 96-well plates (G-Biosciences, St. Louis, MO) were charged with ferric chloride and contacted with equimolar biotinylated peptide: streptavidin-A488 complex (400 ng peptide per well) for 60 min at room temperature, washed with phosphate-buffered saline (PBS) and read at 525 nm in a fluorescence counter. Binding Assay 2 was done as follows: Streptavidin coated 96-well plates (G-Biosciences, St. Louis, MO) were contacted with 400 ng peptide per well in PBS buffer for 60 minutes at room temperature, washed in PBS, then contacted with FITC-NTA (TRC, Toronto, Canada) complexed with equimolar ferric chloride (10× molar equivalent per well) for 60 min at room temperature, washed with PBS and read at 525 nm in a fluorescence counter.

[4] = Experiment 4D binding to FITC-labelled hyaluronic acid; conditions: biotinylated peptide 1 ug/well; 1 ug FITC-labelled hyaluronic acid, 90 minutes
Protocol: (§1) Streptavidin-coated 96-well plates (G-Biosciences, St. Louis, MO) were pre-treated with biotinylated peptides [see Example 1 for key] at 1 ug/well, at room temperature for 60 minutes. The plate was washed with PBS buffer and then 1 ug FITC-labelled heparin or hyaluronic acid in 100 uL PBS buffer was added per well (all tests in quadruplicate). Incubation proceeded for 90 minutes at room temperature, followed by two PBS washes. The plate was read in a standard laboratory fluorometer (488/525 nm exitation/[…]) and the counts normalized for immX3 peptide binding=100. Values statistically above background are shown in bold font. **p<0.05 versus immX3AVD.

[5] = Experiment 4D binding to FITC-labelled heparin; conditions: biotinylated peptide 1 ug/well; 1 ug FITC-labelled heparin, 90 minutes
Protocol: as §1

[6] = Day 1, burn + 1 mg/kg peptide plus equimolar ferric iron, subcutaneous once daily
[7] = Day 8, after LPS, burn + 1 mg/kg peptide days 1-7

| Ferric iron binding, fluorescence standardized to immX3AVD control peptide (100), Avg ± SD [3] | Compound | COL1 immunoreactivity in supernatants, control (buffer) set to 100 [2] | further results |
| --- | --- | --- | --- |
|  | Traumatin-3N1A: a longer peptide also containing the immX extension (SEQ ID NO:35) (RGVTEDYLRLETLVQKVVSPYLKGFYKKKQCRPSKGRKRGFCWAVD) |  | Plasma IL-6 (pg/ml) [1, 6]: 22.5 ± 11*^ pg/ml; Plasma albumin mg/ml (24 hr IR) [1, 6]: 7.6 ± 0.9* mg/ml; Change in body weight (Pct vs Day 1) ([1]; Day 5, burn + 1 mg/kg peptide plus equimolar ferric iron, subcutaneous once daily): −5.3 ± 3.5* Pct; Respiratory distress (Gp. “S” = 100) ([1]; Day 8, 4 hours after LPS, burn + 1 mg/kg peptide days 1-7): 197 ± 39*#; Wet/dry lung weight (corrected for body weight) ([1]; Day 8, after LPS 2.5 mg/kg ip, burn + 1 mg/kg peptide days 1-7): 6.74 ± 0.61*; BAL fluid IL1-beta (pg/ml) [1, 7]: 45.7 ± 24*# pg/ml; Plasma OHDG (ng/ml) [1, 7]: 1.24 ± 0.4* ng/ml; Plasma creatinine (mg/dL) [1, 7]: 0.64 ± 0.2* mg/dL |
|  | CCCC(CCC)C(=O)N[C@@H](CCCCN)C(=O)N[C@@H](CCCCN)C(=O)NCC(=O)N[C@@H](Cc1ccccc1)C(=O)N[C@@H](Cc1ccc(O)cc1)C(=O)N[C@@H](CCCCN)C(=O)N[C@@H](CCCCN)C(=O)N[C@@H](CCCCN)C(=O)N[C@@H](CCC(N)=O)C(=O)N[C@@H](CS)C(=O)N[C@@H](CCCNC(=N)N)C(=O)N1CCC[C@H]1C(=O)N[C@@H](CO)C(=O)N[C@@H](CCCCN)C(=O)NCC(=O)N[C@@H](CCCNC(=N)N)C(=O)N[C@@H](CCCCN)C(=O)N[C@@H](CCCNC(=N)N)C(=O)NCC(=O)N[C@@H](Cc1ccccc1)C(=O)N[C@@H](CS)C(=O)N[C@@H](Cc1c[nH]c2ccccc12)C(=O)O [imm3vlp] ({Pentanoyl(2-Pr)}-KKGFYKKKQCRPSKGRKRGFCW-OH; C-terminus assumed) | 157** |  |
|  | (rhn)-KKGFYKKKQCRPSKGRKRGFCW (rhein-KKGFYKKKQCRPSKGRKRGFCW; cysteine pairing not given here) [imm3rhn, imm3 N-terminally conjugated with rhein] | 68** |  |
| 108.2 ± 6.6 | SLNPEWNETKGFYKKKQCRPSKGRKRGFCW[dA][dV][dD] (cysteine pairing not given here) [immX3K1dAdVdD] |  | Hyaluronate binding, counts normalized for immX3 peptide binding=100 [4]: 101.9 ± 16.4; Heparin binding, counts normalized for immX3 peptide binding=100 [5]: 56.0 ± 7.3** |
| 108.1 ± 1.5 | KKGFYKKKQCRPSKGRKRGFCW[dA]VD (cysteine pairing not given here) [immX3dAVD] |  |  |
|  | CCCCCCCCCC(=O)N[C@@H](CCCCN)C(=O)N[C@@H](CCCCN)C(=O)NCC(=O)N[C@@H](Cc1ccccc1)C(=O)N[C@@H](Cc1ccc(O)cc1)C(=O)N[C@@H](CCCCN)C(=O)N[C@@H](CCCCN)C(=O)N[C@@H](CCCCN)C(=O)N[C@@H](CCC(N)=O)C(=O)N[C@@H](CS)C(=O)N[C@@H](CCCNC(=N)N)C(=O)N1CCC[C@H]1C(=O)N[C@@H](CO)C(=O)N[C@@H](CCCCN)C(=O)NCC(=O)N[C@@H](CCCNC(=N)N)C(=O)N[C@@H](CCCCN)C(=O)N[C@@H](CCCNC(=N)N)C(=O)NCC(=O)N[C@@H](Cc1ccccc1)C(=O)N[C@@H](CS)C(=O)N[C@@H](Cc1c[nH]c2ccccc12)C(=O)O [imm3dec] (Decanoyl-KKGFYKKKQCRPSKGRKRGFCW-OH; C-terminus assumed) | 114 |  |
|  | AFNSYELGSKGFYKKKQCRPSKGRKRGFCW [imm3K9] | 155** |  |
| 88.1 ± 14.2 | RKGFYKRKQCKPSRGRKRGICWAVD [immX5AVD] |  | Hyaluronate binding, counts normalized for immX3 peptide binding=100 [4]: 113.9 ± 15.7; Heparin binding, counts normalized for immX3 peptide binding=100 [5]: 68.7 ± 26.2 |
|  | (bex)-KKGFYKKKQCRPSKGRKRGFCW (not fully specified (N-terminus); printed as (bex)-KKGFYKKKQCRPSKGRKRGFCW; cysteine pairing not given here) [imm3bex] | 102 |  |
| 133.6± | KKGFYKKKQCRPSKGRKRGFCW(dS)(dV)(dD) (KKGFYKKKQCRPSKGRKRGFCW[dS][dV][dD]; cysteine pairing not given here) [immX3dSdVdD] |  |  |
|  | (cin)-KKGFYKKKQCRPSKGRKRGFCW ({cinnamic acid}-KKGFYKKKQCRPSKGRKRGFCW; cysteine pairing not given here) [imm3cin, imm3 N-terminally conjugated with cinnamic acid] | 106 |  |
| 78.3 ± 6.5** | CC(C)[C@H](NC(=O)[C@H](Cc1ccccc1)NC(=O)[C@H](Cc1c[nH]c2ccccc12)NC(=O)[C@H](CS)NC(=O)[C@H](Cc1ccccc1)NC(=O)CNC(=O)[C@H](CCCNC(=N)N)NC(=O)[C@H](CCCCN)NC(=O)[C@H](CCCNC(=N)N)NC(=O)CNC(=O)[C@H](CCCCN)NC(=O)[C@H](CO)NC(=O)[C@@H]1CCCN1C(=O)[C@H](CCCNC(=N)N)NC(=O)[C@H](CS)NC(=O)[C@H](CCC(N)=O)NC(=O)[C@H](CCCCN)NC(=O)[C@H](CCCCN)NC(=O)[C@H](CCCCN)NC(=O)[C@H](Cc1ccc(O)cc1)NC(=O)[C@H](Cc1ccccc1)NC(=O)CNC(=O)[C@H](CCCCN)NC(=O)[C@@H](N)CCCCN)C(=O)N[C@@H](CO)C(=O)O [immX3FVS] (H-KKGFYKKKQCRPSKGRKRGFCWFVS-OH; N-terminus and C-terminus assumed) |  |  |
| 102.4 ± 9.1 | KKGFYKKKQCRPSKGRKRGFCW[dA][dV][dD] (cysteine pairing not given here) [immX3dAdVdD] |  | Hyaluronate binding, counts normalized for immX3 peptide binding=100 [4]: 104.2 ± 14.7; Heparin binding, counts normalized for immX3 peptide binding=100 [5]: 55.5 ± 5.7** |
|  | (isf)-KKGFYKKKQCRPSKGRKRGFCW ({isoferulic acid}-KKGFYKKKQCRPSKGRKRGFCW; cysteine pairing not given here) [imm3isf, imm3 N-terminally conjugated with isoferulic acid] | 131* |  |
|  | FNSYELGSLKKGFYKKKQCRPSKGRKRGFCW [imm3K8] | 98 |  |
|  | AFNSYELGSKKGFYKKKQCRPSKGRKRGFCW [imm3K9.1] | 156** |  |
|  | AFNSYELGSKGFYKKKQCRPSKGRKRGFCWAVDKY [imm3K9c] | 158** |  |
| 1.2 ± 1.3** | RNGNFHPKQCHPALDGQRGKCWAVD [immX4AVD] |  | Hyaluronate binding, counts normalized for immX3 peptide binding=100 [4]: 61.1 ± 34.1; Heparin binding, counts normalized for immX3 peptide binding=100 [5]: 7.3 ± 17.1 |
